Laboratory results from patent US8859796B1, “Synthetic and purification methods for phosphaplatin compounds and uses thereof” (Phosplatin Therapeutics LLC, priority 2012, dated 2014).

Key:
[1] = Stability of saturated aqueous solutions of (R,R)-DACH-2 at pH 2, composition by HPLC; format: physicochemical
Method: The resultant suspension was stirred for 30 min and the pH adjusted to 2 with 0.1M nitric acid. The solution was filtered through a 0.45 micron Whatman polypropylene filter to afford a clear solution. Samples of the solution were stored at 25° C. and 5° C. At the time intervals shown in Tables 2 and 3 the solution composition was determined by HPLC.

[2] = Long-term stability study of the recrystallized (R,R)-DACH-2 sample; format: physicochemical; settings: not exceeding 25° C., humidity 60±5%
Method: A long-term stability study of the recrystallized sample was conducted.

[3] = aqueous solution, pH 2, 5° C., 0.1 h
[4] = aqueous solution, pH 2, 5° C., 2 h
[5] = aqueous solution, pH 2, 5° C., 4 h
[6] = aqueous solution, pH 2, 5° C., 8 h
[7] = aqueous solution, pH 2, 5° C., 16 h
[8] = aqueous solution, pH 2, 5° C., 24 h
[9] = aqueous solution, pH 2, 5° C., 48 h
[10] = aqueous solution, pH 2, 25° C., 0.1 h
[11] = aqueous solution, pH 2, 25° C., 2 h
[12] = aqueous solution, pH 2, 25° C., 4 h
[13] = aqueous solution, pH 2, 25° C., 8 h
[14] = aqueous solution, pH 2, 25° C., 16 h
[15] = aqueous solution, pH 2, 25° C., 24 h
[16] = aqueous solution, pH 2, 25° C., 48 h
[17] = after 14 months, initial 0.01% (wt/wt)

- (R,R)-DACH-2 [1, 3]: 12.8 HPLC Area %
- (R,R)-DACH-2 concentration [1, 3]: 0.1 mg/mL
- (R,R)-DACH-2 dimer [1, 3]: 16.8 HPLC Area %
- (R,R-DACH-2 water adduct) [1, 3]: 2.5 HPLC Area %
- Pt-DACH-diaquo [1, 3]: 68.3 HPLC Area %
- (R,R)-DACH-2 [1, 4]: 11.7 HPLC Area %
- (R,R)-DACH-2 concentration [1, 4]: 2 mg/mL
- (R,R)-DACH-2 dimer [1, 4]: 24.2 HPLC Area %
- (R,R-DACH-2 water adduct) [1, 4]: 2.22 HPLC Area %
- Pt-DACH-diaquo [1, 4]: 60.9 HPLC Area %
- (R,R)-DACH-2 [1, 5]: 10.6 HPLC Area %
- (R,R)-DACH-2 concentration [1, 5]: 4 mg/mL
- (R,R)-DACH-2 dimer [1, 5]: 29.2 HPLC Area %
- (R,R-DACH-2 water adduct) [1, 5]: 2.02 HPLC Area %
- Pt-DACH-diaquo [1, 5]: 57.2 HPLC Area %
- (R,R)-DACH-2 [1, 6]: 9.6 HPLC Area %
- (R,R)-DACH-2 concentration [1, 6]: 8 mg/mL
- (R,R)-DACH-2 dimer [1, 6]: 33.5 HPLC Area %
- (R,R-DACH-2 water adduct) [1, 6]: 1.81 HPLC Area %
- Pt-DACH-diaquo [1, 6]: 53.6 HPLC Area %
- (R,R)-DACH-2 [1, 7]: 9.3 HPLC Area %
- (R,R)-DACH-2 concentration [1, 7]: 16 mg/mL
- (R,R)-DACH-2 dimer [1, 7]: 35.1 HPLC Area %
- (R,R-DACH-2 water adduct) [1, 7]: 1.63 HPLC Area %
- Pt-DACH-diaquo [1, 7]: 52.5 HPLC Area %
- (R,R)-DACH-2 [1, 8]: 9.4 HPLC Area %
- (R,R)-DACH-2 concentration [1, 8]: 24 mg/mL
- (R,R)-DACH-2 dimer [1, 8]: 36.2 HPLC Area %
- (R,R-DACH-2 water adduct) [1, 8]: 1.43 HPLC Area %
- Pt-DACH-diaquo [1, 8]: 51.5 HPLC Area %
- (R,R)-DACH-2 [1, 9]: 9.3 HPLC Area %
- (R,R)-DACH-2 concentration [1, 9]: 48 mg/mL
- (R,R)-DACH-2 dimer [1, 9]: 34.7 HPLC Area %
- (R,R-DACH-2 water adduct) [1, 9]: 1.27 HPLC Area %
- Pt-DACH-diaquo [1, 9]: 53.8 HPLC Area %
- (R,R)-DACH-2 [1, 10]: 67.1 HPLC Area %
- (R,R)-DACH-2 concentration [1, 10]: 2.38 mg/mL
- (R,R)-DACH-2 dimer [1, 10]: 2.9 HPLC Area %
- (R,R-DACH-2 water adduct) [1, 10]: 13.3 HPLC Area %
- Pt-DACH-diaquo [1, 10]: 16.7 HPLC Area %
- (R,R)-DACH-2 [1, 11]: 50.6 HPLC Area %
- (R,R)-DACH-2 concentration [1, 11]: 1.75 mg/mL
- (R,R)-DACH-2 dimer [1, 11]: 14.3 HPLC Area %
- (R,R-DACH-2 water adduct) [1, 11]: 9.3 HPLC Area %
- Pt-DACH-diaquo [1, 11]: 25.8 HPLC Area %
- (R,R)-DACH-2 [1, 12]: 48.7 HPLC Area %
- (R,R)-DACH-2 concentration [1, 12]: 1.59 mg/mL
- (R,R)-DACH-2 dimer [1, 12]: 17.4 HPLC Area %
- (R,R-DACH-2 water adduct) [1, 12]: 9.2 HPLC Area %
- Pt-DACH-diaquo [1, 12]: 24.8 HPLC Area %
- (R,R)-DACH-2 [1, 13]: 51.6 HPLC Area %
- (R,R)-DACH-2 concentration [1, 13]: 1.41 mg/mL
- (R,R)-DACH-2 dimer [1, 13]: 13.4 HPLC Area %
- (R,R-DACH-2 water adduct) [1, 13]: 9.5 HPLC Area %
- Pt-DACH-diaquo [1, 13]: 25.5 HPLC Area %
- (R,R)-DACH-2 [1, 14]: 56.5 HPLC Area %
- (R,R)-DACH-2 concentration [1, 14]: 1.04 mg/mL
- (R,R)-DACH-2 dimer [1, 14]: 8.1 HPLC Area %
- (R,R-DACH-2 water adduct) [1, 14]: 9.8 HPLC Area %
- Pt-DACH-diaquo [1, 14]: 25.6 HPLC Area %
- (R,R)-DACH-2 [1, 15]: 57.6 HPLC Area %
- (R,R)-DACH-2 concentration [1, 15]: 0.88 mg/mL
- (R,R)-DACH-2 dimer [1, 15]: 7 HPLC Area %
- (R,R-DACH-2 water adduct) [1, 15]: 10.1 HPLC Area %
- Pt-DACH-diaquo [1, 15]: 25.3 HPLC Area %
- (R,R)-DACH-2 [1, 16]: 59.5 HPLC Area %
- (R,R)-DACH-2 concentration [1, 16]: 0.62 mg/mL
- (R,R)-DACH-2 dimer [1, 16]: 5.5 HPLC Area %
- (R,R-DACH-2 water adduct) [1, 16]: 9.3 HPLC Area %
- Pt-DACH-diaquo [1, 16]: 25.9 HPLC Area %
- Degradation rate, conclusion in words ([1]; aqueous solution, pH 2, as temperature is reduced (25° C. to 5° C.)): significantly reduced
- Stability in aqueous solution, conclusion in words ([1]; saturated aqueous solution, pH 2): readily suffers hydrolytic degradation
- (R,R)-DACH-2 purity on re-testing ([2]; after 14 months, HDPE bottle, initial 99.4% w/w): 98.4 % (wt/wt)
- chloride content on re-testing [2, 17]: 0.01% (wt/wt)
- nitrate content on re-testing [2, 17]: 0.01% (wt/wt)
- pyrophosphate content on re-testing ([2]; after 14 months, initial 0.17% (wt/wt)): 0.17% (wt/wt)
- DACH-Pt—Cl2 content on re-testing ([2]; after 14 months, initial not detected): not detected
- Long-term stability, conclusion in words ([2]; purified solid, 14 months): stable
SMILES: NC1CCCCC1N.O=P([O-])([O-])OP(=O)(O)O.[Pt+2] [(R,R)-DACH-2, cyclohexanediamine (pyrophosphato)platinum (II)]
